Measured values: article PMC7311426, “An amphipathic peptide with antibiotic activity against multidrug-resistant Gram-negative bacteria” (Nature Communications, 2020)
In brackets after ≈: the same amount, converted by molar mass. Read-outs that look alike come from different tables or passages of the source. Residues, ends and D or L forms follow the SMILES beside them.

What was measured:
[1] = test system: E. coli ATCC 25922; test: microbe, parasite or virus in culture; format: cell-based, Escherichia coli; conditions: ATCC 25922
Summary of the method: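 Broth microdilution MIC in Mueller Hinton broth, 12-point 2-fold series from 128 or 64 down to 0.06 or 0.03 μg mL^−1, 5 × 10^5 CFU mL^−1 inoculum. Read visually after 18-20 h at 37 °C without shaking; n ≥ 6. Additional tests in CAMHB, and in MHB with 1% agarose.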

[2] = test system: human erythrocytes (HRBC); format: cell-based
[3] = test system: K. pneumoniae; test: microbe, parasite or virus in culture; conditions: for MIC: Klebsiella pneumoniae, mode of 6 replicates
Summary of the method: (§1)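 MICs were scored by eye after 18-20 h static incubation at 37 °C, with bacteria at 5 × 10^5 CFU mL^−1 in MHB. Peptides were serially diluted 2-fold over 12 points, top 128 or 64 μg mL^−1. CAMHB (CLSI) and 1% agarose-MHB variants were also run, at least six replicates.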

[4] = test system: B. subtilis; test: microbe, parasite or virus in culture; conditions: for MIC: Bacillus subtilis
Summary of the method: as §1

[5] = test system: P. aeruginosa; test: microbe, parasite or virus in culture; conditions: for MIC: Pseudomonas aeruginosa, mode of 6 replicates
Summary of the method: as §1

[6] = test system: C. neoformans; test: microbe, parasite or virus in culture
[7] = test system: S. enterica Typhi; test: microbe, parasite or virus in culture; conditions: for MIC: Salmonella enterica, ATCC14028 / TYPHI, read-out: BMD MIC
Summary of the method: as §1

[8] = test system: A. baumannii; test: microbe, parasite or virus in culture; conditions: for MIC: Acinetobacter baumannii, mode of 6 replicates
Summary of the method: as §1

[9] = test system: C. albicans; test: microbe, parasite or virus in culture
[10] = test system: L. monocytogenes; test: microbe, parasite or virus in culture
Summary of the method: as §1

[11] = test system: HepG2 liver hepatocellular carcinoma cells; test: in vitro
[12] = in vitro; conditions: human
[13] = test system: HEK-293 human embryonic kidney cells; test: in vitro
[14] = test system: HK-2 human kidney proximal tubule cells; test: in vitro
[15] = test system: E. coli clinical isolates; test: microbe, parasite or virus in culture
Method: (§2) The in vitro activity of AA139 and comparator antimicrobials was determined in two panels of clinical isolates of E. coli, K. pneumoniae, P. aeruginosa, and A. baumannii (Supplementary Table 3), and MIC90 presented. The US panel consisted of 331 clinical isolates from 2010 to 2012. It was tested by BMD in accordance with the CLSI guidelines (M07-A9, 2012)[39]. […] AA139 was diluted in 0.01% acetic acid/0.1% bovine serum albumin. Sterile polypropylene culture cluster round-bottom 96-well plates (Costar # 3879) were used for testing. The worldwide panel consisted of 445 clinical isolates from 2011 to 2013, geographically divided into Asia, Europe, North America, and Rest of World (Middle East, Latin America, Africa, and South Pacific) with each region representing ~25% of the isolates. It was tested by broth microdilution in accordance with the CLSI guidelines (M07-A9, 2012)[39]. […] The test media was CAMHB (Becton Dickinson). AA139 and polymyxin B were tested in media supplemented with 0.002% Tween 80 (Calbiochem). MIC90 values were calculated for all or subsets of the isolates. MIC correlation between AA139 and colistin was analyzed with data from the US panel.

[16] = test system: P. aeruginosa clinical isolates; test: microbe, parasite or virus in culture
Method: as §2

[17] = test system: A. baumannii clinical isolates; test: microbe, parasite or virus in culture
Method: as §2

[18] = test system: K. pneumoniae clinical isolates; test: microbe, parasite or virus in culture
Method: as §2

[19] = test system: E. coli; parameters: method as in Hasman H, et al. Euro. Surveill. (2015) 20:49; conditions: E. coli ESBL20150072, mcr-1 pos; ESBL; CAMHB; comparator antibiotics; ref Hasman H, et al. Euro. Surveill. (2015) 20:49; cited from earlier work
[20] = test system: E. coli; test: microbe, parasite or virus in culture; conditions: Escherichia coli
Summary of the method: as §1

[21] = test system: human primary hepatocytes; test: Cell viability, human primary hepatocytes (Eurofins Panlabs); format: cell-based; conditions: Homo sapiens, Hepatocyte; plateable cryopreserved hepatocytes, alamarBlue, 24 h 37 °C, fluorimetry; 8-point 0.1–300 μM
Method: Cell viability of human primary hepatocytes against AA139 was assessed by fluorometric readout of Alamar Blue following 24 h incubation at 37 °C of human plateable cryopreserved hepatocytes and AA139 as an 8-point dose response, 0.1–300 μM, as described by Nociari et al.[41]. Cell viability was calculated as a percentage of the control cells and plotted versus concentration using Prism 8 Software. The IC50 value was determined by non-linear regression analysis of the concentration–response curve using the Hill equation. Assay was performed by Eurofins Pharma Discovery Services (Panlabs), St Charles, MO, USA, study number 100049990. Source data are provided as a source data file.

[22] = test system: S. aureus; test: microbe, parasite or virus in culture; conditions: Staphylococcus aureus, mode of 6 replicates
Summary of the method: as §1

[23] = Worldwide isolates 2011-2013, E. coli n = 112
[24] = Worldwide isolates 2011-2013, P. aeruginosa n = 111
[25] = Worldwide isolates 2011-2013, A. baumannii n = 108
[26] = Worldwide isolates 2011-2013, K. pneumoniae n = 114

CC(C)[C@@H]1NC(=O)CNC(=O)[C@H](CC(N)=O)NC(=O)[C@H](CCCNC(=N)N)NC(=O)[C@H](Cc2ccc(O)cc2)NC(=O)[C@H](C(C)C)NC(=O)[C@@H]2CSSC[C@H](NC(=O)[C@H](C(C)C)NC(=O)[C@H](CCCNC(=N)N)NC1=O)C(=O)N[C@@H](Cc1ccc(O)cc1)C(=O)N[C@@H](CCCNC(=N)N)C(=O)N[C@@H](CCCNC(=N)N)C(=O)N[C@H](C(=O)N[C@@H](CC(N)=O)C(=O)O)CSSC[C@H](NC(=O)[C@H](Cc1ccccc1)NC(=O)CN)C(=O)N[C@@H](Cc1c[nH]c3ccccc13)C(=O)N[C@@H](Cc1ccc(O)cc1)C(=O)N[C@@H](C(C)C)C(=O)N2 [Arenicin-3] (HELM PEPTIDE1{G.F.C.W.Y.V.C.V.Y.R.N.G.V.R.V.C.Y.R.R.C.N}$PEPTIDE1,PEPTIDE1,3:R3-20:R3|PEPTIDE1,PEPTIDE1,7:R3-16:R3$$$V2.0)
MIC, MHB [1]: 1 µg/mL (≈ 0.383 µM)
Heamolysis HC10, Mean [2]: 204 µg/mL
BMD MIC [3]: 1 µg/mL
BMD MIC [4]: 8 µg/mL
BMD MIC [5]: 1 µg/mL
BMD MIC [6]: 1 µg/mL
BMD MIC ([7]; Typhi): 2 µg/mL
BMD MIC [8]: 1 µg/mL
BMD MIC [9]: >32 µg/mL
BMD MIC ([9]; 24 h): >64 µg/mL
BMD MIC [10]: 8 µg/mL
CC50 HepG2 [11]: >300 µg/mL
CC50 HepG2, Mean [11]: >300 µg/mL
CC50 HepG2 ([11]; human, HepG2 cells, 24 h): >300 µg/mL
CC50 at 24 h ([12]; HEK-293 cells): 271 µg/mL (≈ 104 µM)
CC50 at 24 h ([12]; HK-2 cells): 170 µg/mL (≈ 65.1 µM)
CC50 HEK293, Mean [13]: 271 µg/mL (≈ 104 µM)
CC50 HK2, Mean [14]: 170 µg/mL (≈ 65.1 µM)

CC(C)(O/N=C(\C(=O)N[C@@H]1C(=O)N2C(C(=O)[O-])=C(C[n+]3ccccc3)CS[C@H]12)c1csc(N)n1)C(=O)O [Ceftazidime, ceftazidime, reference compound]
MIC90 ([15]; Escherichia coli): 32 µg/mL (≈ 58.5 µM)
MIC90 ([15]; Escherichia coli, US isolates 2010–2012, E. coli MDR, n = 31): > 32 µg/mL
MIC90 ([15]; Escherichia coli, US isolates 2010–2012, E. coli Non-MDR, n = 24): 2 µg/mL (≈ 3.66 µM)
MIC50 [15, 23]: 0.25 µg/mL (≈ 0.457 µM)
MIC90 [15, 23]: 32 µg/mL (≈ 58.5 µM)
MIC90 ([16]; Pseudomonas aeruginosa, US isolates 2010–2012, P. aeruginosa Non-MDR, n = 41): 32 µg/mL (≈ 58.5 µM)
MIC90 ([16]; Pseudomonas aeruginosa, US isolates 2010–2012, P. aeruginosa XDR, n = 37): > 32 µg/mL
MIC50 [16, 24]: 4 µg/mL (≈ 7.32 µM)
MIC90 [16, 24]: > 32 µg/mL
MIC90 ([17]; Acinetobacter baumannii): > 32 µg/mL
MIC90 ([17]; US isolates 2010–2012, A. baumannii MDR, n = 19): >32 µg/mL
MIC90 ([17]; US isolates 2010–2012, A. baumannii XDR, n = 31): >32 µg/mL
MIC50 [17, 25]: > 32 µg/mL
MIC90 [17, 25]: > 32 µg/mL
MIC90 ([18]; Klebsiella pneumoniae, US isolates 2010–2012, K. pneumoniae Non-MDR, n = 24): 1 µg/mL (≈ 1.83 µM)
MIC90 ([18]; Klebsiella pneumoniae, US isolates 2010–2012, K. pneumoniae XDR, n = 55): > 32 µg/mL
MIC50 [18, 26]: 1 µg/mL (≈ 1.83 µM)
MIC90 [18, 26]: > 32 µg/mL
BMD MIC [19]: >16 µg/mL
MIC ([3]; ATCC13883, read-out: BMD MIC, K. pneumoniae ATCC 13883 type strain (polymyxin/colistin heteroresistant), MHB): 1 µg/mL (≈ 1.83 µM)
MIC ([3]; ATCC700603, read-out: BMD MIC, K. pneumoniae ATCC 700603 (K6), MDR, OXA-2/SHV-18, CAMHB): > 64 µg/mL
MIC ([3]; BAA2146, read-out: BMD MIC, K. pneumoniae BAA-2146, MDR, ESBL, NDM-1 pos, MHB): > 64 µg/mL
MIC ([3]; read-out: BMD MIC, K. pneumoniae Greece CI 8_GR_13, XDR, KPC-2, PmxR, MHB): > 64 µg/mL
MIC ([5]; ATCC27853, read-out: BMD MIC, P. aeruginosa ATCC 27853 control strain, CAMHB): 8 µg/mL (≈ 14.6 µM)
MIC ([5]; read-out: BMD MIC, P. aeruginosa FADDI-070, MDR, PmxR, MHB/CAMHB): > 64 µg/mL
MIC [7]: ≤ 0.5 µg/mL
MIC ([8]; ATCC19636, read-out: BMD MIC, A. baumannii ATCC 19636 type strain, CAMHB): 16 µg/mL (≈ 29.3 µM)
MIC ([8]; read-out: BMD MIC, A. baumannii Greece CI, XDR, PmxR, MHB): > 64 µg/mL
MIC ([20]; ATCC25922, read-out: BMD MIC, E. coli ATCC 25922 FDA control strain, CAMHB, mode of 6 replicates): 1 µg/mL (≈ 1.83 µM)
MIC ([20]; ATCC700926 / MG1655, read-out: BMD MIC): ≤ 0.5 µg/mL
MIC ([20]; ATCC700928, read-out: BMD MIC, E. coli ATCC 700928 CFT073 UPEC, CAMHB, mode of 6 replicates): ≤ 0.25 µg/mL
MIC ([20]; read-out: BMD MIC): 16 µg/mL (≈ 29.3 µM)

CN(C)CCCN1c2ccccc2Sc2ccc(Cl)cc21 [Chlorpromazine, reference compound]
IC50 [21]: 35 µM

CN[C@H](CC(C)C)C(=O)N[C@H]1C(=O)N[C@@H](CC(N)=O)C(=O)N[C@H]2C(=O)N[C@H]3C(=O)N[C@H](C(=O)N[C@H](C(=O)O)c4cc(O)cc(O)c4-c4cc3ccc4O)[C@H](O)c3ccc(c(Cl)c3)Oc3cc2cc(c3O[C@@H]2O[C@H](CO)[C@@H](O)[C@H](O)[C@H]2O[C@H]2C[C@](C)(N)[C@H](O)[C@H](C)O2)Oc2ccc(cc2Cl)[C@H]1O [Vancomycin, reference compound]
MIC ([4]; ATCC6051 / NRS744, read-out: BMD MIC): 0.25 µg/mL (≈ 0.173 µM)
MIC ([4]; ATCC6633 / NRS231, read-out: BMD MIC): 0.25 µg/mL (≈ 0.173 µM)
MIC [7]: > 64 µg/mL
MIC ([22]; ATCC25923|MSSA, read-out: BMD MIC, S. aureus ATCC 25923 MSSA, CAMHB): 2 µg/mL (≈ 1.38 µM)
MIC ([22]; ATCC25923|MSSA, read-out: BMD MIC, S. aureus ATCC 25923 MSSA, MHB): 1 µg/mL (≈ 0.69 µM)
MIC ([22]; ATCC43300|MRSA, read-out: BMD MIC, S. aureus ATCC 43300 MRSA, MHB): 1 µg/mL (≈ 0.69 µM)
MIC ([10]; Listeria monocytogenes, ATCC19112, read-out: BMD MIC): 4 µg/mL (≈ 2.76 µM)
